These results are taken from PMC3950497 (Advances in Pharmacological Sciences, 2014).

Structures can show the parent of a compound that is named as a salt. Where two headings read alike, the source gives them in different places.

Data set [1] is classed as in vivo, rabbit. Conditions: i.m. injection, plasma, from 15 min, extrapolated to infinity. The protocol: The selected rabbits were administrated intramuscular with stephaglabrine sulfate at doses 0.1 mg/kg as it was established before. Each animal received a single dose.
Quantitative analysis was acquired in SRM (selected reactions monitoring) mode on Agilent 6490 triple quadrupole mass spectrometer (Agilent, USA) operated in the positive mode and equipped with Jet Stream ESI ion source. Stepharine was detected in the scheduled selected reaction monitoring (SRM) with unit resolution at both first (Q1) and third (Q3) quadrupoles. The retention time point of stepharine was determined as 9.8 with isolation width of 1 minute for the scheduled SRM method application. The optimal conditions of the analysis were achieved as follows: capillary voltage was −4500 V, nozzle voltage was set at −1200 V, flow rate of drying gas (N2) was 16 L/min, flow rate of sheath gas (N2) was 8 L/min, temperature of drying gas was set at 340°C, temperature of sheath gas was set at 290°C, and nebulizer gas was operated at 20 psi. The transitions for protonated stepharine [M+H]^+ 298.4 → 161.2, 192.1, 238.2 were selected for SRM analysis. The isolation window for the fragment ions was set at 0.27 amu, the optimum fragmentor voltage was adjusted to 310 V and collision energy −19 eV. All the samples including calibration points were analyzed in three replications. 30 μL of the samples was injected and loaded on chromatographic column. Calibration was performed on standard samples solution prepared in 20% acetonitrile with concentration of stepharine from 10^−4 μg/mL to 100 μg/mL. Chromatographic separation was performed on Thermo Hypersil-Keystone ODS column (Thermo Scientific, USA) 100 × 2.1 mm, 5 μm particle size, at flow rate of 200 μL/min and with the following elution conditions: loading onto the column at maintained 20% of mobile phase B for 3 minutes, increasing the gradient to 50% of B at 5 minutes following increasing the gradient to 100% of mobile phase B at 15 minutes. The column was washed and maintained at 100% mobile phase B from 15 to 22 minutes and the composition was decreased to 20% of solvent B at 23 minute. The column was reequilibrated at starting conditions of solvent A-solvent B system ([…], v/v) for 10 minutes at flow 200 μL/min.
0.5 mL of blood samples from each animal was collected from ear vein in the tubes with EDTA before administration and at 15, 30, 60, 90, 120, 180, 480, 720, and 1440 minutes after drug ingestion. Blood samples were immediately put on ice and centrifuged at 5000 g for 10 minutes at 4°C within one hour after blood collection. The obtained plasma was placed in sterile tube and kept at −20°C until analysis.
Plasma proteins were precipitated with acetonitrile. For this purpose, two volumes of acetonitrile were added to 100 μL of rabbit plasma into 1.5 mL plastic tube and 30% ammonia hydroxide was added to adjust the pH to 10. After vortex-mixing for 15 minutes at ambient temperature one volume of chloroform was added three times consequently for 2 hours and incubated at 30°C under regular stirring at 900 rpm at each occasion. The first fraction of upper organic layer was collected after 2 hours of incubation, the second and the third fractions of chloroform extract were collected after additional 30 and 60 minutes of incubation, respectively. The collected fractions were combined and transferred to a new tube and dried under vacuum at 30°C. The resulting pellet was resuspended in 100 μL of 20% water-acetonitrile solution and centrifuged at 14000 rpm for 15 minutes immediately before use. The obtained solution was used for LC-MS analysis. […]

For data set [2] the following is noted: water and aqueous alcohol; cited from earlier work.
For a further data set, the system named is synaptic transmission. Further details: method as in PMID 1652103. Conditions: at low concentration; cited from earlier work.
In data set [3] the test system is denervated extremities at traumatic injuries of sciatic nerve. Details: method as in ref 4, 5 = [4]; 4 Kuznecov J Arzamascev E Malinovskaja C Pharmacological properties and toxicologic characteristics of stefaglabrin sulphate Medicines Plant Origin in Modern Therapy 1989 2 p. 71 || [5]; 5 Schelchkova II Il'inskaya TN Kuzovkov AD The alkaloids of Stephania glabra Chemistry of Natural Compounds 1965 1 4 210 212. Particulars: rabbits, intramuscular injection 0.1 mg/kg; cited from earlier work.

The conditions of data set [4]: without side effects such as α- or β-adrenergic blockade, sedative or depressant effect; cited from earlier work.
For data set [5] the following is noted: dichloromethane and hexane as extracting solvents.
In the next data set the test system is cholinesterase. Details: method as in ref 11 = [11]; 11 Berezhinskaya VV Nikittna SS Trutneva EA Medicinal plants pharmacology and chemotherapy Trudy Vsesoyuznogo Nauchno-Issledovatel'skogo Instituta Lekarstvenny Rastenii 1971 14 66 69. Conditions: in vitro; cited from earlier work.
Another data set relates to pseudocholinesterase. Details: method as in ref 11 = [11]; 11 Berezhinskaya VV Nikittna SS Trutneva EA Medicinal plants pharmacology and chemotherapy Trudy Vsesoyuznogo Nauchno-Issledovatel'skogo Instituta Lekarstvenny Rastenii 1971 14 66 69. Conditions: in vitro; cited from earlier work.

Regarding `COc1cc2c3c(c1OC)C1(C=CC(=O)C=C1)C[C@H]3NCC2` [stephaglabrine sulfate, Stephaglabrine sulfate], the AUC15 is 1661 ng∗min/mL in data set [1] (rabbit ST01, dosage 0.50 mg (0.1 mg/kg)); 3187 ng∗min/mL in data set [1] (rabbit ST02, dosage 0.50 mg (0.1 mg/kg)); 2516 ng∗min/mL in data set [1] (rabbit ST04, dosage 0.45 mg (0.1 mg/kg)); 2217 ng∗min/mL in data set [1] (rabbit ST05, dosage 0.50 mg (0.1 mg/kg)); 2769 ng∗min/mL in data set [1] (rabbit ST06, dosage 0.50 mg (0.1 mg/kg)). Also, the solubility entry in data set [2] is “soluble in water and aqueous alcohol”. In addition, the “frequency of miniature endplate potential” value with synaptic transmission was “diminishes frequency of miniature endplate potential”. The “intensity of trophic disturbances of denervated extremities” value in data set [3] is “significantly decreases intensity of trophic disturbances”. For the same compound, the antihypertensive activity result in data set [4] is given as “possesses antihypertensive activity”. Further, the “solubility in highly nonpolar solvents” value in data set [5] is recorded as “low solubility”. In addition, in the data set on cholinesterase, the inhibition of cholinesterase result is “inhibits”. Further, the inhibition of pseudocholinesterase result with pseudocholinesterase is given as “inhibits”.
